Laboratory results: the NIST ThermoML archive (doi:10.1016/j.jct.2012.06.030)

Assay: excess molar enthalpy (molar enthalpy of mixing); xn = mol fraction of the nth substance listed
Settings: 101 kPa, Liquid, isothermal titration calorimeter

CCCCCC[n+]1ccc2ccccc2c1.N#C[S-] [2-hexylisoquinolinium thiocyanate] + O
Settings	excess molar enthalpy [kcal/mol]
298.15 K, x1 = 0.0916	0.0327
298.15 K, x1 = 0.0938	0.0335
298.15 K, x1 = 0.0961	0.0344
298.15 K, x1 = 0.0985	0.0351
298.15 K, x1 = 0.101	0.0361
298.15 K, x1 = 0.1036	0.0368
298.15 K, x1 = 0.1064	0.0378
298.15 K, x1 = 0.1093	0.0387
298.15 K, x1 = 0.1125	0.0399
298.15 K, x1 = 0.1157	0.0409
298.15 K, x1 = 0.1192	0.0421
298.15 K, x1 = 0.1229	0.0435
298.15 K, x1 = 0.1264	0.0445
298.15 K, x1 = 0.1301	0.0459
298.15 K, x1 = 0.134	0.0471
298.15 K, x1 = 0.1381	0.0485
298.15 K, x1 = 0.1426	0.0502
298.15 K, x1 = 0.1473	0.0516
298.15 K, x1 = 0.1523	0.0533
298.15 K, x1 = 0.1577	0.0552
298.15 K, x1 = 0.1635	0.0571
298.15 K, x1 = 0.1697	0.0593
298.15 K, x1 = 0.1764	0.0617
298.15 K, x1 = 0.1836	0.0641
298.15 K, x1 = 0.1915	0.0667
298.15 K, x1 = 0.2001	0.0696
298.15 K, x1 = 0.2095	0.0727
298.15 K, x1 = 0.2198	0.076
298.15 K, x1 = 0.2312	0.0798
298.15 K, x1 = 0.2439	0.0834
298.15 K, x1 = 0.258	0.0846
298.15 K, x1 = 0.2738	0.0832
298.15 K, x1 = 0.2917	0.077
298.15 K, x1 = 0.3095	0.0691
298.15 K, x1 = 0.3296	0.0581
298.15 K, x1 = 0.3525	0.0449
298.15 K, x1 = 0.3749	0.0325
298.15 K, x1 = 0.4002	0.0189
298.15 K, x1 = 0.424	0.00672
298.15 K, x1 = 0.4509	-0.00614
298.15 K, x1 = 0.4749	-0.0166
298.15 K, x1 = 0.5016	-0.027
298.15 K, x1 = 0.5315	-0.037
298.15 K, x1 = 0.5562	-0.044
298.15 K, x1 = 0.5833	-0.05
298.15 K, x1 = 0.6133	-0.055
298.15 K, x1 = 0.6464	-0.0586
298.15 K, x1 = 0.6834	-0.0602
298.15 K, x1 = 0.7102	-0.0598
298.15 K, x1 = 0.7393	-0.0583
298.15 K, x1 = 0.7708	-0.0552
298.15 K, x1 = 0.8051	-0.0502
298.15 K, x1 = 0.8229	-0.0471
298.15 K, x1 = 0.8415	-0.0435
298.15 K, x1 = 0.861	-0.039
298.15 K, x1 = 0.8815	-0.0342
298.15 K, x1 = 0.9029	-0.0287
298.15 K, x1 = 0.9253	-0.0225
298.15 K, x1 = 0.949	-0.0156
298.15 K, x1 = 0.9738	-0.00798
303.15 K, x1 = 0.0899	0.0318
303.15 K, x1 = 0.092	0.0325
303.15 K, x1 = 0.0942	0.0332
303.15 K, x1 = 0.0965	0.0339
303.15 K, x1 = 0.099	0.0347
303.15 K, x1 = 0.1016	0.0356
303.15 K, x1 = 0.1043	0.0366
303.15 K, x1 = 0.1071	0.0373
303.15 K, x1 = 0.1102	0.0385
303.15 K, x1 = 0.1134	0.0394
303.15 K, x1 = 0.1168	0.0406
303.15 K, x1 = 0.1204	0.0418
303.15 K, x1 = 0.1238	0.0428
303.15 K, x1 = 0.1274	0.044
303.15 K, x1 = 0.1312	0.0452
303.15 K, x1 = 0.1352	0.0466
303.15 K, x1 = 0.1395	0.048
303.15 K, x1 = 0.1441	0.0495
303.15 K, x1 = 0.1489	0.0511
303.15 K, x1 = 0.1542	0.0528
303.15 K, x1 = 0.1598	0.0547
303.15 K, x1 = 0.1658	0.0566
303.15 K, x1 = 0.1723	0.0588
303.15 K, x1 = 0.1793	0.0612
303.15 K, x1 = 0.187	0.0636
303.15 K, x1 = 0.1953	0.0664
303.15 K, x1 = 0.2044	0.0693
303.15 K, x1 = 0.2144	0.0727
303.15 K, x1 = 0.2254	0.0748
303.15 K, x1 = 0.2375	0.0779
